Patent US6165984A, “Naringin and naringenin as inhibitors of acyl CoA-cholesterol-o-acyltransferase” (Korea Institute of Science & Technology, priority 1997, dated 2000)

Key:
hepatic cells = conditions: rabbits, 1% cholesterol diet, six weeks; 1 mg/kg Lovastatin, 0.1% naringin
Procedure: The same procedure as in (Step 1) was repeated except that 30 three-month old New Zealand White rabbits (Yeonam Horticulture and Animal Husbandry College, Korea) each weighing about 2.5 to 2.6 kg were used in place of the rats, and the rabbits were fed for six weeks with three different diets, i.e., RC4 diet containing 1% cholesterol (Control group); 1% cholesterol plus 1 mg/kg Lovastatin® (Comparative group); and 1% cholesterol plus 0.1% naringin, respectively.
Thereafter, the livers were separated from the rabbits and the histopathological observations were carried out as follows.
The rabbits were anesthetized with an intramuscular injection of ketamine (75 mg/kg) and subjected to an abdominal incision. […] The fixed liver was washed sufficiently with water, dehydrated stepwise with 70%, 80%, 90% and 100% ethanol and, then, embedded in paraffin. The embedded liver was sectioned in 4 μm thickness with a microtome and stained with hematoxylin and eosin. The stained liver specimen was made transparent with xylene, mounted with permount, and then observed under a microscope to confirm the presence of lesions.

[1] = Blood total cholesterol and triglyceride in cholesterol-fed rabbits (Example 6); assay type: in vivo, New Zealand White rabbit; conditions: 1% cholesterol diet, 6 weeks, 1 mg/kg Lovastatin, 0.1% naringin or naringenin
Procedure: Blood samples were taken from the rats of the three dietary groups and plasma HDL fractions were separated therefrom by using HDL-cholesterol reagent (Sigma Chemical Co., Cat. No. 352-3) containing dextran-sulfate. Total cholesterol and HDL-cholesterol levels were determined by using Sigma Diagnostic Kit Cat. No. 352-100(Sigma Chemical Co., […] et al., Clin. Chem., 20, 470-475(1974)). Neutral lipid level was determined by using Sigma Diagnostic Kit Cat. No. 339-50(Bucolo, G. and David, H., Clin. Chem., 19, 476-482(1973)). The result is shown in Table III, wherein the total plasma cholesterol levels in naringin and naringenin-fed rat groups decreased by 32% and 18%, respectively, as compared with that of the control group. […] RC4 diet comprises 7.6% moisture, 22.8% crude protein, 2.8% crude fat, 8.8% crude ash, 14.4% crude cellulose and 43.6% soluble nitrogen-free substances. The rabbits were bred for 6 weeks while being allowed free access to the diets and water. Further, blood samples were taken from the rabbits and total cholesterol and triglyceride levels were determined in accordance with the same procedure in Example 4.

[2] = tested on: macrophage-lipid complex on the arterial endothelium; test: Fatty streak analysis: macrophage-lipid complex on main artery of cholesterol-fed rabbits (Example 6); assay type: in vivo, New Zealand White rabbit; conditions: 1 mg/kg Lovastatin
Description: RC4 diet comprises 7.6% moisture, 22.8% crude protein, 2.8% crude fat, 8.8% crude ash, 14.4% crude cellulose and 43.6% soluble nitrogen-free substances. The rabbits were bred for 6 weeks while being allowed free access to the diets and water. The rabbits bred in (Step 1) were sacrificed and their chest were incised. The main artery was cut out therefrom in a length of about 5 cm downward from the site 1 cm above the aortic valve and the fat surrounding the main artery was removed. The main artery was incised in the middle along the longitudinal axis and pinned to a dish. The moist artery was photographed and, then, staining of fatty streak was carried out in accordance with the method of […]., et al. (J. Lab. Clin. […] A part of the incised main artery was washed three times by 2 min. with anhydrous propylene glycol and stained for 30 min. with a saturated solution of Oil Red O (ORO, Sigma Co.) dissolved in propylene glycol. Thereafter, the artery was washed twice by 3 min. with 85% propylene glycol to remove remaining staining solution and, then washed with physical saline. The artery was photographed and the photograph was traced. The area of stained region (fatty streak region) was determined with an image analyzer (LEICA, Q-600, Germany) and its proportion (%) to the total arterial area was calculated. On the other hand, the other part of the main artery was stained in accordance with hematoxylin-eosin (H&E) and Masson's trichrome staining methods and observed under a microscope to confirm whether the macrophage-lipid complexes were accumulated in the intima, internus, elastic lamina and media.

[3] = tested on: creatin kinase in the liver; conditions: in vivo; cited from earlier work

SMILES: CC[C@H](C)C(=O)O[C@H]1C[C@@H](C)C=C2C=C[C@H](C)[C@H](CC[C@@H]3C[C@@H](O)CC(=O)O3)[C@H]21 [Lovastatin, reference compound]
- microscopic features of the liver (FIGS. 2A-2C) (hepatic cells): irregularly arranged and enlarged and a large amount of fat is deposited therein
- Triglyceride ([1]; control 56): 66 mg/dL
- Total cholesterol ([1]; control 1143): 1210 mg/dL
- layer of macrophage-lipid complex on the arterial endothelium (FIGS. 1A-1C) ([2]; 0.1% naringin, control: thick layer): no or very thin layers of macrophage-lipid complex
- area of macrophage-lipid complex accumulated on the arterial endothelium, compared to control group ([2]; 1% cholesterol diet, 6 weeks, 0.1% naringin or naringenin): decreased significantly
- M-L (macrophage-lipid) complex area ([2]; proportion of total arterial area, 1% cholesterol diet, 6 weeks, 0.1% naringin or naringenin, control 35): 5%
- adverse side effect [3]: increasing creatin kinase in the liver
